According to patent US12091425B2 (AMGEN INC., priority 2016, dated 2024):

biological target: T1, Mcl-1/Bim interaction, recombinant human Mcl-1 (171-327) (Homo sapiens, UniProt Q07820); assay: Cell free Mcl-1: Bim Affinity Assay (Mcl-1 HTRF); type: binding; settings: TR-FRET, 0.1 nM Mcl-1 (171-327), 0.05 nM biotin-Bim (51-76)
T1 construct: made in house
Outline: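 TR-FRET competition assay with biotinylated human Bim peptide (residues 51-76); reaction plates incubated overnight before reading. IC50 values came from duplicate data fitted to a four-parameter sigmoidal competition curve.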

T1 sequence (Q07820 171-327): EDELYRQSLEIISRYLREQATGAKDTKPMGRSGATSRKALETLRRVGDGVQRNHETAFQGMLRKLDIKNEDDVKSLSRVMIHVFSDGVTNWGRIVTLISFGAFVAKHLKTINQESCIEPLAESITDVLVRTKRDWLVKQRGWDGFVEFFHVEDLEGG

Row | Compound | IC50
1 | C[C@]12CC[C@H]1CN1C[C@@]3(CCCc4cc(Cl)ccc43)COc3ccc(cc31)C(=O)NS(=O)(=O)CCCCC[C@@H]2O (single isomer, unassigned) [Example 122] | 7.17 nM
2 | COCC[C@H]1CC/C=C/[C@H](O)[C@@H]2CC[C@H]2CN2C[C@@]3(CCCc4cc(Cl)ccc43)COc3ccc(cc32)C(=O)NS1(=O)=O (single isomer, unassigned) [Example 443] | 1.51 nM
3 | O=C1NS(=O)(=O)[C@@H](C(F)(F)F)CCCC[C@H](O)[C@@H]2CC[C@H]2CN2C[C@@]3(CCCc4cc(Cl)ccc43)COc3ccc1cc32 (single isomer, unassigned) [Example 433] | 3.23 nM
4 | O=C1NS(=O)(=O)[C@H](CO)CC/C=C/[C@H](O)[C@@H]2CC[C@H]2CN2C[C@@]3(CCCc4cc(Cl)ccc43)COc3ccc1cc32 (single isomer, unassigned) [Example 445] | 0.461 nM
5 | O=C1NS(=O)(=O)C(CO)CCC=CCC2CCC2CN2CC3(CCCc4cc(Cl)ccc43)COc3ccc1cc32 (single isomer, unassigned) [Example 450] | 6.76 nM
6 | CC[C@@H]1CC/C=C\[C@@H](NC(C)=O)[C@@H]2CC[C@H]2CN2C[C@@]3(CCCc4cc(Cl)ccc43)COc3ccc(cc32)C(=O)NS1(=O)=O (single isomer, unassigned) [Example 1079] | 5.48 nM
7 | CCN1CC/C=C\[C@H](O)[C@@H]2CC[C@H]2CN2C[C@@]3(CCCc4cc(Cl)ccc43)COc3ccc(cc32)C(=O)NS1(=O)=O (single isomer, unassigned) [Example 30] | 1.92 nM
8 | O=C1NS(=O)(=O)C(CCOC(F)(F)F)CC/C=C/[C@H](O)[C@@H]2CC[C@H]2CN2C[C@@]3(CCCc4cc(Cl)ccc43)COc3ccc1cc32 (single isomer, unassigned) [Example 1012] | 0.698 nM

The remaining lines, values ahead:

Row | IC50 | Compound
9 | 5 nM | O=C1NS(=O)(=O)CCC[C@H](O)[C@@H]2CC[C@H]2CN2C[C@@]3(CCCc4cc(Cl)ccc43)COc3ccc1cc32 [Example 342, (1S,3′R,6′R,7′S)-6-chloro-7′-hydroxy-3,4-dihydro-2H,13′H-spiro[naphthalene-1,20′-[18]oxa[11]thia[1,12]diazatetracyclo[12.7.2.0^3,6.0^17,22]tricosa[14,16,22]trien]-13′-one 11′,11′-dioxide]
10 | 20.7 nM | CN1CCCCS(=O)(=O)NC(=O)c2ccc3c(c2)N(C[C@@H]2CC[C@H]2C1=O)C[C@@]1(CCCc2cc(Cl)ccc21)CO3 [Example 99, (1S,3′R,6′R)-6-chloro-8′-methyl-3,4-dihydro-2H,7′H,15′H-spiro[naphthalene-1,22′-[20]oxa[13]thia[1,8,14]triazatetracyclo[14.7.2.0^3,6.0^19,24]pentacosa[16,18,24]trien]-7′,15′-dione 13′,13′-dioxide]
11 | 0.632 nM | C=C1CC/C=C/[C@H](O)[C@@H]2CC[C@H]2CN2C[C@@]3(CCCc4cc(Cl)ccc43)COc3ccc(cc32)C(=O)NS1(=O)=O (single isomer, unassigned) [Example 441]
12 | 3.98 nM | CC[C@H]1CCCOC[C@@H]2CC[C@H]2CN2C[C@@]3(CCCc4cc(Cl)ccc43)COc3ccc(cc32)C(=O)NS1(=O)=O (single isomer, unassigned) [Example 369]
13 | 1.29 nM | CS(=O)(=O)CCO[C@@H]1/C=C/CCCS(=O)(=O)NC(=O)c2ccc3c(c2)N(C[C@@H]2CC[C@H]21)C[C@@]1(CCCc2cc(Cl)ccc21)CO3 [Example 1095, (1S,3′R,6′R,7′R,8′E)-6-chloro-7′-(2-(methylsulfonyl)ethoxy)-3,4-dihydro-2H,15′H-spiro [naphthalene-1,22′-[20]oxa[13]thia[1,14]diazatetracyclo[14.7.2.0^3,6.0^19,24]pentacosa [8,16,18,24]tetraen]-15′-one 13′,13′-dioxide]

same assay, conditions: cell free Mcl-1:Bim TR-FRET, recombinant human Mcl-1 (171-327)

Row | Compound | IC50
14 | N-((1S,3′R,6′R,7′S)-6-chloro-13′,13′-dioxido-15′-oxo-3,4-dihydro-2H-spiro[naphthalene-1,22′-[20]oxa[13]thia[1,14]diazatetracyclo[14.7.2.0^3,6.0^19,24]pentacosa [16,18,24]trien]-7′-yl)acetamide or N-((1S,3′R,6′R,7′R)-6-chloro-13′,13′-dioxido-15′-oxo-3,4-dihydro-2H-spiro[naphthalene-1,22′-[20]oxa[13]thia[1,14]diazatetracyclo[14.7.2.0^3,6.0^19,24]pentacosa [16,18,24]trien]-7′-yl)acetamide [Example 934] | 2.07 nM
15 | O=C1NS(=O)(=O)CCCCC[C@H](NCCO)[C@@H]2CC[C@H]2CN2C[C@@]3(CCCc4cc(Cl)ccc43)COc3ccc1cc32 (single isomer, unassigned) [Example 929] | 40 nM
16 | CC1(C)CCC[C@H](O)[C@@H]2CC[C@H]2CN2C[C@@]3(CCCc4cc(Cl)ccc43)COc3ccc(cc32)C(=O)NS1(=O)=O [Example 770, (1S,3′R,6′R,7′S)-6-chloro-7′-hydroxy-11′,11′-dimethyl-3,4-dihydro-2H,14′H-spiro[naphthalene-1,21′-[19]oxa[12]thia[1,13]diazatetracyclo[13.7.2.0^3,6.0^18,23]tetracosa[15,17,23]trien]-14′-one 12′,12′-dioxide] | 1.33 nM
17 | O=C1NS(=O)(=O)C/C=C\C[C@@H](O)C[C@@H]2CC[C@H]2CN2C[C@@]3(CCCc4cc(Cl)ccc43)COc3ccc1cc32 (single isomer, unassigned) [Example 914] | 1.87 nM
18 | O=C1NS(=O)(=O)C[C@H](c2ccccc2)C/C=C/[C@H](O)[C@@H]2CC[C@H]2CN2C[C@@]3(CCCc4cc(Cl)ccc43)COc3ccc1cc32 (single isomer, unassigned) [Example 704] | 40.5 nM
19 | C[C@@H]1CC[C@@H]2C[C@H]2[C@H](O)[C@@H]2CC[C@H]2CN2C[C@@]3(CCCc4cc(Cl)ccc43)COc3ccc(cc32)C(=O)NS1(=O)=O (single isomer, unassigned) [Example 951] | 13.1 nM
20 | O=C1NS(=O)(=O)CCC=CC(O)C2CCC2CN2CC3(CCCc4cc(Cl)ccc43)COc3ccc1cc32 (mixture of isomers) [Example 776, (1S,3′R,6′R,7′S,8′E)-6-chloro-7′-hydroxy-3,4-dihydro-2H,14′H-spiro[naphthalene-1,21′-[19]oxa[12]thia[1,13]diazatetracyclo [13.7.2.0^3,6.0^18,23]tetracosa[8,15,17,23]tetraen]-14′-one 12′,12′-dioxide and (1S,3′R,6′R,7′S,8′Z)-6-chloro-7′-hydroxy-3,4-dihydro-2H,14′H-spiro[naphthalene-1,21′-[19]oxa[12]thia[1,13]diazatetracyclo[13.7.2.0^3,6.0^18,23]tetracosa[8,15,17,23]tetraen]-14′-one 12′,12′-dioxide] | 2.71 nM
21 | O=C1NS(=O)(=O)CCC/C=C/[C@@H]2CC[C@H]2CN2C[C@@]3(CCCc4cc(Cl)ccc43)COc3ccc1cc32 [Example 829, (1S,3′R,6′S, 7′E)-6-chloro-3,4-dihydro-2H,14′H-spiro[naphthalene-1,21′-[19]oxa[12]thia[1,13]diazatetracyclo[13.7.2.0^3,6.0^18,23]tetracosa [7,15,17,23]tetraen]-14′-one 12′,12′-dioxide] | 9.87 nM
22 | CC[C@@H]1CC/C=C/C(=O)[C@@H]2CC[C@H]2CN2C[C@@]3(CCCc4cc(Cl)ccc43)COc3ccc(cc32)C(=O)NS1(=O)=O [Example 915, (1S,3′R,6′R,8′E,12′R)-6-chloro-12′-ethyl-3,4-dihydro-2H,7′H,15′H-spiro[naphthalene-1,22′-[20]oxa[13]thia[1,14]diazatetracyclo[14.7.2.0^3,6.0^19,24]pentacosa [8,16,18,24]tetraene]-7′,15′-dione 13′,13′-dioxide] | 16.2 nM
23 | COC1C=CCC(OC)C(C)S(=O)(=O)NC(=O)c2ccc3c(c2)N(CC2CCC21)CC1(CCCc2cc(Cl)ccc21)CO3 (single isomer, unassigned) [Example 717] | 28.6 nM
24 | O=C1NS(=O)(=O)CCOCCC[C@@H]2CC[C@H]2CN2C[C@@]3(CCCc4ccccc43)COc3ccc1cc32 (stereo in doubt) [Example 824, (3S,6R,22S)-3′,4′-dihydro-2′H,15H-spiro[10,20-dioxa-13-thia-1,14-diazatetracyclo[14.7.2.0^3,6.^019,24]pentacosa-16,18,24-triene-22,1′-naphthalen]-15-one 13,13-dioxide] | 20.1 nM
25 | O=C1NS(=O)(=O)[C@H]2CCN(C2)C(=O)CC[C@@H]2CC[C@H]2CN2C[C@@]3(CCCc4cc(Cl)ccc43)COc3ccc1cc32 (single isomer, unassigned) [Example 946] | 4.15 nM
26 | O=C1NS(=O)(=O)CCCCC[C@@H](O)[C@@H]2CC[C@H]2CN2C[C@@]3(CCCc4cc(Cl)ccc43)COc3ccc1cc32 [Example 843, (1S,3′R,6′R,7′R)-6-chloro-7′-hydroxy-3,4-dihydro-2H,15′H-spiro[naphthalene-1,22′-[20]oxa[13]thia[1,14]diazatetracyclo[14.7.2.0^3,6.0^19,24]pentacosa [16,18,24]trien]-15′-one 13′,13′-dioxide] | 6.8 nM
27 | O=C1NS(=O)(=O)CC/C=C/CC[C@@H]2CC[C@H]2CN2C[C@@]3(CCCc4cc(Cl)ccc43)COc3ccc1cc32 [Example 496, (1S,3′R,6′R,9′E)-6-chloro-3,4-dihydro-2H,15′H-spiro[naphthalene-1,22′-[20]oxa[13]thia[1,14]diazatetracyclo[14.7.2.0^3,6.0^19,24]pentacosa [10,16,18,24]tetraen]-15′-one 13′,13′-dioxide] | 6.33 nM
28 | CC(C)C(=O)N[C@@H]1CCCCCS(=O)(=O)NC(=O)c2ccc3c(c2)N(C[C@@H]2CC[C@H]21)C[C@@]1(CCCc2cc(Cl)ccc21)CO3 (single isomer, unassigned) [Example 936] | 4.74 nM
29 | C[C@@H]1C[C@@H]2C[C@@H](O1)[C@@H]1CC[C@H]1CN1C[C@@]3(CCCc4cc(Cl)ccc43)COc3ccc(cc31)C(=O)NS(=O)(=O)CCO2 (single isomer, unassigned) [Example 876] | 18.3 nM
